Like-named read-outs stand apart in the source and are kept apart here.
Columns and labels:
[1] = system: J774a.1 macrophages; experiment: Cytotoxicity by propidium iodide staining and flow cytometry; type: cell-based; conditions: equivalent to 50-150 μg/mL PMB, 24 h
Protocol: (§1) As a cationic polypeptide, PMB is known to be effective in neutralizing LPS as early as in 1967, but its systemic application is hampered by dose-limiting nephro- and neurotoxicity. PMB manifests the toxicity via the increased membrane permeability, resulting in increased influx of ions and water and subsequent cell swelling and lysis. To test if the toxicity can be reduced by supplying PMB as a NP-bound form, THP-1 monocytes or J774a.1 macrophages were incubated with D-TZP or free PMB at a concentration equivalent to 50-150 μg/mL PMB for 24 h, stained with propidium iodide (PI), which penetrates damaged cell membrane but not intact membrane, and analyzed with flow cytometry. […] Substantial reduction of membrane damage is attributable to the surface-bound ZWC, which provides a negatively charged cloud beyond the remit of PMB due to the large size, attenuating direct exposure of PMB to cell membrane.
(§2) Cytotoxicity of PMB and D-TZP. Cytotoxic concentration range of free PMB was first determined with THP1-XBlue-MD2-CD14 cells by the MTT assay. […] The PI fluorescence of 10,000 cells was measured with the BD Accuri C6 flow cytometer (BD Biosciences, San Jose, CA) via the FL-2 detector. Nanoparticles and cell debris were excluded by gating, but all cell population (dead or alive) was analyzed. […]

[2] = system: LPS-induced NF-kB/AP-1 activation in THP1-XBlue-MD2-CD14 cells; experiment: In vitro anti-LPS activity, SEAP reporter assay, LPS added simultaneously with treatment; type: cell-based, human; conditions: 10 ng/mL LPS, free PMB at 150 μg/mL
Protocol: To investigate if D-TZP can neutralize LPS, a reporter cell line responding to LPS was incubated with LPS and free PMB or D-TZP's (with different amounts of PMB). THP1-XBlue-MD2-CD14, derived from the human monocytic THP-1 cell line, overexpresses MD2 and CD14 to amplify the response to TLR4 agonist LPS. Color change of the Quanti-Blue reagent (NF-kB/AP-1-inducible secreted embryonic alkaline phosphatase (SEAP) reporter protein) reflects NF-kB/AP-1 activation due to LPS. LPS-induced SEAP production was measured at 620 nm. The reporter cells with 10 ng/mL of LPS expressed a high level of SEAP as compared to non-challenged cells. […] A supernatant was obtained from each mixture to separate unbound LPS and added to THP1-XBlue-MD2-CD14 cells.
In vitro anti-LPS activity. Five microliters of LPS ([…]) was mixed with 15 μL of free PMB, D-TZP, or TZP at different concentrations in a flat-bottom 96-well plate. THP1-XBlue-MD2-CD14 cell suspension (10^5 cells in 180 μL) was then added to the mixtures. After 24 h incubation, cells were centrifugated at 233 rcf for 5 min. Twenty microliters of the cell medium was mixed with the Quanti-Blue reagent. After 2 h incubation, the color was measured at 620 nm by a Spectra Max M3 microplate reader (Molecular Devices, Sunnyvale, CA). […] The medium was analyzed in the same manner as above.

[3] = system: C57BL/6 male mice; conditions: known value, cited from earlier work
[4] = system: THP-1 monocytes; experiment: Cytotoxicity by propidium iodide staining and flow cytometry; type: cell-based, human; conditions: equivalent to 50-150 μg/mL PMB, 24 h
Protocol: as §1, §2

[5] = system: cecal ligation and puncture (CLP) model; experiment: Therapeutic efficacy in cecal ligation and puncture (CLP) polymicrobial sepsis model; type: in vivo, C57BL/6 mice; conditions: IV 2 h post-CLP and every 2 days, max three times; D-TZP and TZP 10 mg/kg PMB eq., free PMB 5 mg/kg
Protocol: The efficacy of systemic […] was further tested in cecal ligation and puncture (CLP) model, which induces systemic inflammation by polymicrobial infection and thus simulates a clinically relevant septic state (Toscano, M. G. et al., JoVE, e2860 (2011)). D-TZP and TZP was administered IV at 10 mg/kg PMB eq. 2 h post-CLP and every subsequent 2 days a maximum total of three times. Free PMB was given at 5 mg/kg IV in the same schedule as D-TZP.
Therapeutic efficacy in polymicrobial sepsis model by cecal ligation and puncture (CLP). The efficacy of D-TZP and TZP was evaluated in a cecal ligation and puncture (CLP) model, the gold standard of polymicrobial sepsis model. The abdomen of 6 week-old C57BL/6 male was cleaned with a hair-removal cream (Nair, Church & Dwight Co., Inc). The mice were anesthetized by 2.5% isofluorane. Betadine 0.5% solution and 70% isopropyl alcohol swap were alternately applied three times to disinfect the shaved abdomen. Midline laparotomy was performed under an aseptic condition to exteriorize the cecum. The cecum was ligated below the ileocecal valve with a 5-0 suture (perma-hand silk, Ethicon) and perforated twice with 20 G needle on the same side of the cecum to release feces into the peritoneal cavity. After perforation, the intestines were returned to abdominal cavity. […] Animals were monitored as described in the endotoxemia model.

## polymyxin B [PMB]
[1]
  PI fluorescence (membrane damage): dose-dependent PI fluorescence signal
[2]
  LPS-induced SEAP production: reduced the SEAP production
[3]; IP
  LD50: 20 mg/kg
[3]; IV
  LD50: 5 mg/kg
[4]
  PI fluorescence (membrane damage): dose-dependent PI fluorescence signal
[5]
  survival: 33%

Reference: patent US11865158B2, “Process and composition matter of nanoparticle formulation for systemic treatment of sepsis” (PURDUE RESEARCH FOUNDATION, priority 2019, dated 2024)
